Measurements as given in patent US10759781B2, “Substituted guanidine derivatives” (UBE INDUSTRIES, LTD., priority 2015, dated 2020).
Where a name gives a salt, the structure may show the parent alone.

Target: T1, Human VAP-1 enzyme (Homo sapiens, UniProt Q16853)
T1 construct: purchased R&D Systems, Inc
T1 sequence (Q16853 1-763): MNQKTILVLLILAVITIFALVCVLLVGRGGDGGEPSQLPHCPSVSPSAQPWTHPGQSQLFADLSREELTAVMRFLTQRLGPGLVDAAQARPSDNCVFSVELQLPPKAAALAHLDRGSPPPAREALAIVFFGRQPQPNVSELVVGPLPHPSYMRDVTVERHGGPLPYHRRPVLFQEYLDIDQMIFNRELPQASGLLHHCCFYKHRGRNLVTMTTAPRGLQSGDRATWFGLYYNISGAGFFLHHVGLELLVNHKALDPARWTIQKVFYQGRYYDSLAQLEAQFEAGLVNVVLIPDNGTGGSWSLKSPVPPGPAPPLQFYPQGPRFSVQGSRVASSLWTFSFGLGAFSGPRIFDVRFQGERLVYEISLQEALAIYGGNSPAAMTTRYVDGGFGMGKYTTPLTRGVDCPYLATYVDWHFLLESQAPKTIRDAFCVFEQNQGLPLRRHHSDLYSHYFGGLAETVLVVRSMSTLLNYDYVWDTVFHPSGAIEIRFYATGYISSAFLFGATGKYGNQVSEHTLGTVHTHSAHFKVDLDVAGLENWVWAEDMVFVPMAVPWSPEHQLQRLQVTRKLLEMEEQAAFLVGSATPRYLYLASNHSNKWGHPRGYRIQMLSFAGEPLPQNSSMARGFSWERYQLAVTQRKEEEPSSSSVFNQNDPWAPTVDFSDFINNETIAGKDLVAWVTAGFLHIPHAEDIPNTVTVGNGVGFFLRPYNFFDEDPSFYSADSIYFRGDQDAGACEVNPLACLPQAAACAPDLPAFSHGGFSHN
Assay: Human VAP-1 enzyme inhibition test
Format: biochemical
Conditions: 1 h; compound 30 nM; 14C-benzylamine 100 μM; read-out: inhibition ratio (human VAP-1 enzyme)
Experimental: Human VAP-1 enzyme inhibition test
This test was conducted by modifying the method of P. H. Yu et al. (Diabetologia 40 1243 (1997)). Human VAP-1 enzyme (R&D Systems, Inc.) was pre-incubated in a 96-well plate with the compound dissolved in dimethylsulfoxide at room temperature for 20 minutes. Next, in a solution to the final volume of 200 μL, the enzyme reaction solution was incubated with ^14C-benzylamine (final concentration 100 μM) at 37° C. for 1 hour. The reaction was terminated by the addition of 100 μL of 2 M citric acid solution to the reaction solution. The oxidative product was extracted using a toluene/ethyl acetate mixture and the radioactivity was measured with a liquid scintillation counter. The inhibition ratio of the compound was calculated using the following equation. Inhibition ratio={1−[VAP-1 enzyme activity after treatment with the compound]/[VAP-1 enzyme activity in the presence of dimethylsulfoxide alone without the compound]}×100

| Compound | inhibition at 0.03 µM [%] |
| --- | --- |
| N=C(N)NC(=O)OCc1cccc(-c2cnc(N3CC(=NOCCOCCO)C3)nc2)c1F [Example 74, 2-Fluoro-3-[2-(3-{[2-(2-hydroxyethoxy)ethoxy]imino}azetidin-1-yl)pyrimidin-5-yl]benzyl carbamimidoylcarbamate] | ≥ 50 |
| N=C(N)NC(=O)OCc1cccc(-c2cnc(N3CC(=NOCCF)C3)nc2)c1F [Example 196, 2-Fluoro-3-(2-{3-[(2-fluoroethoxy)imino]azetidin-1-yl}pyrimidin-5-yl)benzyl carbamimidoylcarbamate 1/2 L-tartrate] | ≥ 50 |
| N=C(N)NC(=O)OCc1cccc(-c2cnc(N3CC(=NOCC(CO)CO)C3)nc2)c1F [Example 92, 2-Fluoro-3-[2-(3-{[3-hydroxy-2-(hydroxymethyl)propoxy]imino}azetidin-1-yl)pyrimidin-5-yl]benzyl carbamimidoylcarbamate] | ≥ 50 |
| O=C(O)/C=C\C(=O)O.[2H]C([2H])([2H])ON=C1CN(c2ncc(-c3cccc(COC(=O)NC(=N)N)c3F)cn2)C1 [Example 194, 2-Fluoro-3-(2-{3-[(methoxy-d3)imino]azetidin-1-yl}pyrimidin-5-yl)benzyl carbamimidoylcarbamate maleate] | ≥ 50 |
| CNCCON=C1CCN(c2ncc(-c3cccc(COC(=O)NC(=N)N)c3F)cn2)CC1 [Example 162, 2-Fluoro-3-[2-(4-{[2-(methylamino)ethoxy]imino}piperidin-1-yl)pyrimidin-5-yl]benzyl carbamimidoylcarbamate dihydrochloride] | ≥ 50 |
| CCOC(=O)CCCON=C1CCN(c2ncc(-c3cccc(COC(=O)NC(=N)N)c3F)cn2)CC1 [Example 152, Ethyl 4-[({1-[5-(3-{[(carbamimidoylcarbamoyl)oxy]methyl}-2-fluorophenyl)pyrimidin-2-yl]piperidin-4-ylidene}amino)oxy]butanoate] | ≥ 50 |
| CC(=O)OCC(CO)CON=C1CN(c2ncc(-c3cccc(COC(=O)NC(=N)N)c3F)cn2)C1 (centres unmarked) [Example 77, 3-[({1-[5-(3-{[(Carbamimidoylcarbamoyl)oxy]methyl}-2-fluorophenyl)pyrimidin-2-yl]azetidin-3-ylidene}amino)oxy]-2-(hydroxymethyl)propyl acetate] | ≥ 50 |
| COCCN1CC(ON=C2CN(c3ncc(-c4cccc(COC(=O)NC(=N)N)c4F)cn3)C2)C1 [Example 147, 2-Fluoro-3-{2-[3-({[1-(2-methoxyethyl)azetidin-3-yl]oxy}imino)azetidin-1-yl]pyrimidin-5-yl}benzyl carbamimidoylcarbamate] | ≥ 50 |
| CC(=O)NCC(CO)CON=C1CN(c2ncc(-c3cccc(COC(=O)NC(=N)N)c3F)cn2)C1 (centres unmarked) [Example 120, 3-[2-(3-{[3-Acetamido-2-(hydroxymethyl)propoxy]imino}azetidin-1-yl)pyrimidin-5-yl]-2-fluorobenzyl carbamimidoylcarbamate] | ≥ 50 |
| N=C(N)NC(=O)OCc1cccc(-c2cnc(N3CC(=NOCCN4CCC4)C3)nc2)c1F [Example 126, 3-[2-(3-{[2-(Azetidin-1-yl)ethoxy]imino}azetidin-1-yl)pyrimidin-5-yl]-2-fluorobenzyl carbamimidoylcarbamate] | ≥ 50 |
| CON=C1CN(c2ncc(-c3cccc(COC(=O)NC(=N)N)c3F)cn2)C1 [Example 184, 2-Fluoro-3-{2-[3-(methoxyimino)azetidin-1-yl]pyrimidin-5-yl}benzyl carbamimidoylcarbamate 1/2 L-tartrate] | ≥ 50 |
| N=C(N)NC(=O)OCc1cccc(-c2cnc(N3CC(=NOC4CN(CCO)C4)C3)nc2)c1F [Example 146, 2-Fluoro-3-{2-[3-({[1-(2-hydroxyethyl)azetidin-3-yl]oxy}imino)azetidin-1-yl]pyrimidin-5-yl}benzyl carbamimidoylcarbamate] | ≥ 50 |
| N=C(N)NC(=O)OCc1cccc(-c2cnc(N3CC(=NOCCCC(=O)O)C3)nc2)c1F [Example 115, 4-[({1-[5-(3-{[(Carbamimidoylcarbamoyl)oxy]methyl}-2-fluorophenyl)pyrimidin-2-yl]azetidin-3-ylidene}amino)oxy]butanoic acid] | ≥ 50 |
| O=C(O)C(O)C(O)C(=O)O.[2H]C([2H])([2H])ON=C1CN(c2ncc(-c3cccc(COC(=O)NC(=N)N)c3F)cn2)C1 [Example 192, 2-Fluoro-3-(2-{3-[(methoxy-d3)imino]azetidin-1-yl}pyrimidin-5-yl)benzyl carbamimidoylcarbamate 1/2 L-tartrate] | ≥ 50 |
| CNC(=O)CCCON=C1CN(c2ncc(-c3cccc(COC(=O)NC(=N)N)c3F)cn2)C1 [Example 116, 2-Fluoro-3-[2-(3-{[4-(methylamino)-4-oxobutoxy]imino}azetidin-1-yl)pyrimidin-5-yl]benzyl carbamimidoylcarbamate] | ≥ 50 |
| O=C(O)CCC(=O)O.[2H]C([2H])([2H])ON=C1CN(c2ncc(-c3cccc(COC(=O)NC(=N)N)c3F)cc2F)C1 [Example 207, 2-Fluoro-3-(5-fluoro-6-{3-[(methoxy-d3)imino]azetidin-1-yl}pyridin-3-yl)benzyl carbamimidoylcarbamate 1/2 succinate] | ≥ 50 |
| CCc1cc(-c2cccc(COC(=O)NC(=N)N)c2F)cnc1N1CC(=NOC)C1 [Example 47, 3-{5-Ethyl-6-[3-(methoxyimino)azetidin-1-yl]pyridin-3-yl}-2-fluorobenzyl carbamimidoylcarbamate] | ≥ 50 |
| COC(CNC(C)=O)CON=C1CN(c2ncc(-c3cccc(COC(=O)NC(=N)N)c3F)cn2)C1 (centres unmarked) [Example 123, 3-(2-{3-[(3-Acetamido-2-methoxypropoxy)imino]azetidin-1-yl}pyrimidin-5-yl)-2-fluorobenzyl carbamimidoylcarbamate] | ≥ 50 |
| CC(=O)N1CCOC(CON=C2CN(c3ncc(-c4cccc(COC(=O)NC(=N)N)c4F)cn3)C2)C1 (centres unmarked) [Example 131, 3-[2-(3-{[(4-Acetylmorpholin-2-yl)methoxy]imino}azetidin-1-yl)pyrimidin-5-yl]-2-fluorobenzyl carbamimidoylcarbamate] | ≥ 50 |
| COCc1cc(-c2cccc(COC(=O)NC(=N)N)c2F)cnc1N1CC(=NOC)C1 [Example 49, 2-Fluoro-3-{6-[3-(methoxyimino)azetidin-1-yl]-5-(methoxymethyl)pyridin-3-yl}benzyl carbamimidoylcarbamate] | ≥ 50 |
| COC(=O)N1CC(ON=C2CN(c3ncc(-c4cccc(COC(=O)NC(=N)N)c4F)cn3)C2)C1 [Example 143, Methyl 3-[({1-[5-(3-{[(carbamimidoylcarbamoyl)oxy]methyl}-2-fluorophenyl)pyrimidin-2-yl]azetidin-3-ylidene}amino)oxy]azetidin-1-carboxylate] | ≥ 50 |
| O=C(O)CCC(=O)O.[2H]C([2H])([2H])ON=C1CN(c2ncc(-c3cccc(COC(=O)NC(=N)N)c3F)cn2)C1 [Example 195, 2-Fluoro-3-(2-{3-[(methoxy-d3)imino]azetidin-1-yl}pyrimidin-5-yl)benzyl carbamimidoylcarbamate 1/2 succinate] | ≥ 50 |
| COCC(O)CON=C1CN(c2ncc(-c3cccc(COC(=O)NC(=N)N)c3F)cn2)C1 (centres unmarked) [Example 104, 2-Fluoro-3-(2-{3-[(2-hydroxy-3-methoxypropoxy)imino]azetidin-1-yl}pyrimidin-5-yl)benzyl carbamimidoylcarbamate] | ≥ 50 |
| CCOC(=O)CCCON=C1CN(c2ncc(-c3cccc(COC(=O)NC(=N)N)c3F)cn2)C1 [Example 114, Ethyl 4-[({1-[5-(3-{[(carbamimidoylcarbamoyl)oxy]methyl}-2-fluorophenyl)pyrimidin-2-yl]azetidin-3-ylidene}amino)oxy]butanoate] | ≥ 50 |
| N=C(N)NC(=O)OCc1cccc(-c2cnc(N3CC(=NOCC(O)CO)C3)nc2)c1F (centres unmarked) [Example 93, 3-(2-{3-[(2,3-Dihydroxypropoxy)imino]azetidin-1-yl}pyrimidin-5-yl)-2-fluorobenzyl carbamimidoylcarbamate] | ≥ 50 |
| CON=C1CN(c2ncc(-c3cccc(COC(=O)NC(=N)N)c3F)cc2Cl)C1 [Example 44, 3-{5-Chloro-6-[3-(methoxyimino)azetidin-1-yl]pyridin-3-yl}-2-fluorobenzyl carbamimidoylcarbamate] | ≥ 50 |
